Assay results published in patent US20150086986A1, “METHOD TO PREDICT THE PRESENCE OF INFLAMMATION OR ITACONIC ACID, IRG1 AND/OR PROTEIN IRG1 IN A SUBJECT AND PHARMACEUTICAL COMPOSITION FOR TREATING OR PREVENTING INFLAMMATION” (priority 2011, published 2015).

Tests used:
[1] = test system: Salmonella enterica serovar Typhimurium; test: S. enterica growth in liquid minimal medium with acetate as unique carbon source; format: cell-based
Experimental: To directly investigate the effect of itaconic acid on bacterial replication, S. enterica was grown in liquid minimal medium supplemented with acetate as the unique carbon source and various concentrations of itaconic acid. […] S. enterica was grown in liquid medium with acetate as unique carbon source in the presence of increasing concentrations of itaconic acid (5, 10, 50, 100 mM). The optical density (OD) was measured every hour to record the bacterial growth. Curves are calculated in % relative to time 0 and represent the mean of three independent experiments.

[2] = test system: bacterial isocytrate lyase (ICL); details: literature reports; cited from earlier work
Streptococcus pyogenes = test: Bacterial phagocytosis and killing assay in siRNA-transfected RAW264.7 macrophages infected with S. pyogenes; format: cell-based; details: streptococci compared with Salmonella
Experimental: Bacterial phagocytosis and killing assay were conducted to test the influence of the uptake of S. pyogenes by transfected (siRNA IRG1) mouse macrophages (RAW264.7 cell line) after 1 h, 2 h and 4 h of incubation.
Transfected RAW264.7 macrophages (with unspecific siRNA or IRG1 specific siRNA) were infected with Streptococcus pyogenes strain A20 at a multiplicity of infection (MOI) of 10:1 (10 bacteria per macrophage) and incubated for 1 h at 37° C., 5% CO2. Macrophages were then washed with sterile PBS, resuspended in complete medium containing […] gentamicin to kill non ingested bacteria and further incubated for 2 h at 37° C., 5% CO2. Macrophages were then disrupted with dH2O to release intracellular bacteria (this was considered time 0 h relative to gentamicin treatment) or 1, 2, 4 h later (this was considered time 1, 2, 4 h relative to gentamicin treatment) and the amount of viable intracellular bacteria was determined by plating on blood agar.
RAW264.7 cells were transfected with either siRNA specific for IRG1 or with siRNA Ctr. […] Macrophages were then disrupted with H2O to release intracellular bacteria and the amount of viable intracellular bacteria was determined by plating on blood agar. […]

[3] = Cis-aconitate decarboxylase (CAD) activity assay of purified Flag-IRG1; format: biochemical, Mus musculus; details: peak activity fraction; 1 mM cis-aconitate, 30° C., 40 min, pH 7.1
Experimental: HEK293T cells were extracted 48 hours after transfection by scraping them into a lysis buffer containing 25 mM Hepes, pH 7.1 and 1× protease inhibitor cocktail (Roche). After two freeze/thaw cycles, cell extracts were incubated for 30 min on ice in the presence of DNAse I (200 U/ml extract; Roche Applied Science) and 10 mM MgSO4. The crude cell extracts were centrifuged for 5 min at 16000×g (4° C.) and pellets were resuspended in lysis buffer for SDS-PAGE analysis. Flag-IRG1 was purified from the supernatant using the Flag®M purification kit, according to the manufacturer's instructions (Sigma Aldrich). […] Protein concentration was measured by the Bradford assay using Bradford reagent (Bio-Rad).
Cis-aconitate decarboxylase activity was measured by incubating cell extracts or purified protein fractions (10 μl) at 30° C. and for 40 min in a reaction mixture containing 25 mM Hepes, pH 7.1 and 1 mM cis-aconitate in a total volume of 100 μl. […] The dry residue was derivatized and itaconic acid was quantified by GC-MS as described below. Itaconic acid concentrations were calculated by comparing the corresponding GC/MS signals obtained in samples with the one obtained after injection of known amounts of itaconic acid standards. […]
Cis-aconitate decarboxylase activity was measured in cell extracts and purification fractions. […]

| Compound | itaconic acid concentration with significant effect on growth inhibition ([1]; 5, 10, 50, 100 mM tested, OD every hour) | bacterial growth inhibition ([1]; increasing concentrations of itaconic acid) | inhibition of isocitrate lyase [2] | antimicrobial effect of itaconic acid (Streptococcus pyogenes) | CAD specific activity [3] |
| --- | --- | --- | --- | --- | --- |
| C=C(CC(=O)O)C(=O)O [itaconic acid] | higher than 10 mM | dose-dependent growth inhibition | inhibits | less pronounced in streptococci than in Salmonella | – |
| Flag-IRG1: FLAG-tagged IRG1 protein purified from HEK293T cells transfected with a pCMV6-Entry-IRG1 expression plasmid | – | – | – | – | about 40 nmol min^−1 mg protein^−1 |
